Data published in patent US9107814B2, “Micelle composition of polymer and passenger drug” (Wisconsin Alumni Research Foundation, priority 2005, dated 2015).

Legend:
[1] = different species; cited from earlier work
[2] = loading of rapamycin and geldanamycin into PEG-DSPE and PEG-PCL micelles; type: physicochemical; conditions: micelle solution against water solubility
Excerpt: The final solvent to water ratio is between about 0.1 and about 5, preferably between about 0.5 and about 4, and more preferably about 2. The micelle solution should be delivered at a rate of between about 2 s/drop and about 60 s/drop, preferably between about 5 s/drop and about 30 s/drop, and more preferably between about 10 s/drop and about 20 s/drop.

Experimental for physchem: The octanol-water partition coefficient of geldanamycin was determined by microemulsion electrokinetic chromatography.
Running buffer was prepared by titration of 25-mM sodium phosphate monobasic with 50-mM sodium tetraborate to pH 7.00, and 1.44 g of sodium dodecyl sulfate, 6.49 g of 1-butanol, and 0.82 g of heptane were made up to 100 ml with phosphate-borate buffer. The running buffer was ultrasonicated for 30 min in a closed 250-ml flask in ice water (G112SP1 Special Ultrasonic Cleaner, Laboratory Supplies Company Inc., Hicksville, N.Y.). […] Compounds and standards (n=3) were dissolved in the running buffer (0.05 mg/ml) with 0.5 μL/ml of nitromethane and 0.5 μL/ml of 1-phenyldodecane by ultrasonication (10 min) in a closed tube and centrifuged (16000×g, 3 min) to degas. A BioFocus 3000 capillary electrophoresis system (Bio-Rad, Hercules, Calif.) equipped with a 50-μm ID×37-cm uncoated fused-silica column (Polymicron Technologies LLC, Phoenix, Ariz.) was used for MEEKC experiments. The column was prewashed with 1-M NaOH for 5 min and before runs with 0.1-M NaOH for 1 min, ddH2O for 1 min, and running buffer for 1 min at 100 psi (690 kPa). Running conditions were 10 kV (ca. 30-35 μA, 30 min/run) at 20° C. with 1-psi·s injections (6.9 kPa·s) and detection at 210 and 232 nm. Log Po/w and retention factors, k′, were calculated using the equations:
[formula] [formula] where tr, t0, and tme are retention times of the prodrug, nitromethane, and 1-phenyldodecane, respectively. Fitting parameters a and b were determined by linear regression of known standards: pyridine, phenol, benzoic acid, anisole, benzene, toluene, dodecanoic acid, benzopyrene, and pyrene (R^2=0.996, Excel® 2003, Microsoft Corp.).

CO[C@H]1C[C@@H]2CC[C@@H](C)[C@@](O)(O2)C(=O)C(=O)N2CCCC[C@H]2C(=O)O[C@H]([C@H](C)C[C@@H]2CC[C@@H](O)[C@H](OC)C2)CC(=O)[C@H](C)/C=C(\C)[C@@H](O)[C@@H](OC)C(=O)[C@H](C)C[C@H](C)/C=C/C=C/C=C/1C [Rapamycin]
chromatographic logP (physchem): 3.77
half-life [1]: more than 5 hours
increase in solubility [2]: 1900 fold
